Data taken from paper PMC7221892, “In Vitro and in Vivo Activity of mTOR Kinase and PI3K Inhibitors Against Leishmania donovani and Trypanosoma brucei” (Molecules, 2020).
Several values for one entry are separate records, joined by “and”; a condition that tells them apart may be missing. Equal values may be shown once.

What was measured:
THP-1 cells = assay: Host cell viability in pilot screening at 10 μM; assay type: cell-based, human; conditions: screening concentration 10 µM
Procedure: PMA-treated THP-1 human monocytic cells were seeded at 0.8 × 10^4 cells per well in a 384-well culture plate (Greiner Bio-One, Kremsmünster, Austria) in RPMI-1640 complete medium supplemented with 10% FBS. After 48 h of incubation at 37 °C in the presence of 5% CO2, the promastigotes of L. donovani that were incubated with lectin for 30 min at 28 °C were added to the cells at a parasite to cell ratio of 20:1. […] The negative control consisted of THP-1 infected with the parasite with only 0.5% DMSO. After 72 h, the cells that were infected and treated with the drug were washed with serum-free RPMI-1640 medium. The cells and parasites were stained using 5 μM DRAQ5 and 4% PFA. The images were acquired based on reading using an Operetta® automated microscope (PerkinElmer, Inc., Waltham, MA 02451 USA). They were further analyzed using Columbus^TM (PerkinElmer, Inc. Waltham, MA, USA) software to quantify parasite numbers, host cell numbers, and infection ratios. In brief, large-sized nucleus of host cells was first detected using Draq-5 (Thermo Fisher, Rockford, IL, USA) signal and the host cell boundary masking was performed using the low-intensity signals from cytosols (additional feature of Draq-5). Then the small-sized nucleus signal by Draq-5 was used to identify parasites within the area of masked host cell. […] The average IR value of the negative control wells was calculated as 0.53. […]

[1] = tested on: intracellular L. donovani; assay: Pilot high-content screening against intracellular L. donovani at 10 μM; assay type: cell-based; conditions: screening concentration 10 µM
Procedure: PMA-treated THP-1 human monocytic cells were seeded at 0.8 × 10^4 cells per well in a 384-well culture plate (Greiner Bio-One, Kremsmünster, Austria) in RPMI-1640 complete medium supplemented with 10% FBS. After 48 h of incubation at 37 °C in the presence of 5% CO2, the promastigotes of L. donovani that were incubated with lectin for 30 min at 28 °C were added to the cells at a parasite to cell ratio of 20:1. […] The negative control consisted of THP-1 infected with the parasite with only 0.5% DMSO. After 72 h, the cells that were infected and treated with the drug were washed with serum-free RPMI-1640 medium. The cells and parasites were stained using 5 μM DRAQ5 and 4% PFA. The images were acquired based on reading using an Operetta® automated microscope (PerkinElmer, Inc., Waltham, MA 02451 USA). They were further analyzed using Columbus^TM (PerkinElmer, Inc. Waltham, MA, USA) software to quantify parasite numbers, host cell numbers, and infection ratios. In brief, large-sized nucleus of host cells was first detected using Draq-5 (Thermo Fisher, Rockford, IL, USA) signal and the host cell boundary masking was performed using the low-intensity signals from cytosols (additional feature of Draq-5). Then the small-sized nucleus signal by Draq-5 was used to identify parasites within the area of masked host cell. Infection ratio (IR) was determined with the value of the number of infected cells divided by total number of cells and the average number of parasites per macrophage (P/φ) was defined by the value of the number of parasites divided by the number of infected cells in the acquired image. The average IR value of the negative control wells was calculated as 0.53. Compounds selected based on the screening results were further assessed in a dose-dilution manner (two-fold serial dilution for 20 points starting from 100 μM) using the same method.

[2] = Pilot toxicity study in mice; assay type: in vivo; conditions: 5 mg/kg dose
Procedure: For this proof of concept in vivo study, L. donovani infected BALB/c model was used to evaluate the ability of compound to reduce parasites in liver. […] Using the same dosing scheme, the efficacies of the compounds were evaluated in VL mouse model.

[3] = tested on: L. donovani promastigotes; assay: L. donovani promastigote growth inhibition (resazurin); assay type: cell-based; conditions: Leishmania donovani, 72 h, 3 days exposure, read-out: L. donovani Promastigote EC50 ± SD
Procedure: (§1) L. donovani promastigote and T. b. brucei Lister 427 BSF growth inhibition were assayed by measuring the conversion of resazurin to resorufin. The assays were performed in 384-well plates that were seeded with L. donovani promastigotes or T. brucei 427 BSF (5 × 10^4 cells per well). After seeding, the parasites were exposed to the compounds for 3 days. Resazurin sodium salt (200 μM; R7017; Sigma-Aldrich, St. Louis, MO, USA) was then added, and the samples were incubated for 5 h. After incubation, the parasites were fixed using 4% paraformaldehyde, and the plates were analyzed using a Victor3^TM plate reader (PerkinElmer, Inc., Waltham, MA, USA) at 590 nm (emission) and 530 nm (excitation). […] Pentamidine was used for the T. b. brucei Lister 427 BSF growth inhibition assay.
(§2) All of the half maximal effective concentrations (EC50) and the half maximal cytotoxic concentrations (CC50) values were calculated using two independent experiments. The dose-response curves were fitted using GraphPad Prism 6 software (GraphPad Software, San Diego, CA, USA) by using a sigmoidal dose-response equation with a variable hill slope option.

[4] = Host cell cytotoxicity (CC50) in infected THP-1 cells, dose-dilution assay; assay type: cell-based; conditions: human, infected THP-1 host cells, read-out: THP-1 Cell CC50 ± SD
Procedure: (§3) PMA-treated THP-1 human monocytic cells were seeded at 0.8 × 10^4 cells per well in a 384-well culture plate (Greiner Bio-One, Kremsmünster, Austria) in RPMI-1640 complete medium supplemented with 10% FBS. After 48 h of incubation at 37 °C in the presence of 5% CO2, the promastigotes of L. donovani that were incubated with lectin for 30 min at 28 °C were added to the cells at a parasite to cell ratio of 20:1. […] The negative control consisted of THP-1 infected with the parasite with only 0.5% DMSO. After 72 h, the cells that were infected and treated with the drug were washed with serum-free RPMI-1640 medium. The cells and parasites were stained using 5 μM DRAQ5 and 4% PFA. The images were acquired based on reading using an Operetta® automated microscope (PerkinElmer, Inc., Waltham, MA 02451 USA). They were further analyzed using Columbus^TM (PerkinElmer, Inc. Waltham, MA, USA) software to quantify parasite numbers, host cell numbers, and infection ratios. In brief, large-sized nucleus of host cells was first detected using Draq-5 (Thermo Fisher, Rockford, IL, USA) signal and the host cell boundary masking was performed using the low-intensity signals from cytosols (additional feature of Draq-5). Then the small-sized nucleus signal by Draq-5 was used to identify parasites within the area of masked host cell. Infection ratio (IR) was determined with the value of the number of infected cells divided by total number of cells and the average number of parasites per macrophage (P/φ) was defined by the value of the number of parasites divided by the number of infected cells in the acquired image.
as §2

[5] = tested on: intracellular L. donovani; assay: Intracellular L. donovani in THP-1 cells, dose-dilution high-content imaging assay; assay type: cell-based; conditions: for EC50: Leishmania donovani, THP-1 cells infected with L. donovani, 72 h, duplicate measurements, read-out: Intracellular L. donovani EC50 ± SD
Procedure: as §3, §2

T. b. brucei Lister 427 = assay: HAT mouse model (acute T. b. brucei Lister 427 infection of BALB/c mice); assay type: in vivo; conditions: for parasitemia in T. brucei-infected mice: five consecutive days of treatment, Torin2 15 mg/kg, NVP-BGT226 5 mg/kg
Procedure: BALB/c mice were infected with T. b. brucei Lister 427 (4 × 10^4 cells) by intraperitoneal (i.p.) injection. […] Parasitemia was evaluated daily for 2 weeks by blood collection from the mouse tail vein, and survival was monitored for 1 month. Mice showing impaired health status and/or with a parasite load > 10^8 cells per mL of blood were euthanized.

L. donovani = assay: VL mouse model (L. donovani-infected BALB/c mice); assay type: in vivo; conditions: miltefosine 30, Torin2 15, dactolisib 50, NVP-BGT226 5 mg/kg; for Inhibition of L. donovani In Vivo (%) (Mean ± SD): liver parasite burden vs vehicle, per os 5 days; for LDU in the Liver (Mean ± SD): once daily per os for 5 days from day 7 post-infection
Procedure: The highest dose for each compound without showing adverse effects was selected based on literature search. The vehicle for the compounds was 5% N-methylpyrrolidone, 15% polyvinylpyrrolidone, and 80% deionized water. Drug dosing solutions were freshly prepared each day. All drugs were administered once daily for 5 days via the per os route. On day 16 post-infection, all animals were humanely euthanized and assessed microscopically using Giemsa-stained liver imprints. Parasite burdens were measured by counting (blinded to treatment) the number of amastigotes per 1000 cell nuclei and multiplying this number by the liver weight (mg) (Leishman-Donovan Unit: LDU). The LDU values for the drug-treated samples were compared to those of the untreated samples, and the percent inhibition values were calculated.

[6] = tested on: T. b. brucei Lister 427 BSF; assay: T. b. brucei Lister 427 bloodstream form growth inhibition (resazurin); assay type: cell-based; conditions: Trypanosoma brucei, 72 h, 3 days exposure, read-out: T. brucei Lister 427 BSF EC50 ± SD
Procedure: as §1, §2

Row | Compound | toxicity against the host cell in screening (THP-1 cells) | inhibition of intracellular parasite survival in screening [1] | toxicity in vivo [2] | EC50 [3] [nM] | CC50 at 72 h [4] [nM] | EC50 [5] [nM] | Selectivity Index (SI) ([5]; SI = THP-1 CC50/Intracellular L. donovani EC50) | mice surviving during 14 days post-infection (T. b. brucei Lister 427; 5 mg/kg per os for 5 days) [%] | mice surviving more than 25 days without parasitemia (T. b. brucei Lister 427; 5 mg/kg per os for 5 days) [%] | delay in survival over the Torin2-treated group (T. b. brucei Lister 427; NVP-BGT226 5 mg/kg vs Torin2 15 mg/kg) [days] | parasitemia in T. brucei-infected mice (T. b. brucei Lister 427) | Inhibition of L. donovani In Vivo (%) (Mean ± SD) (L. donovani; 5 mg/kg) | LDU in the Liver (Mean ± SD) (L. donovani) [LDU] | EC50 [6] [nM] | mice surviving at least 13 days after infection (T. b. brucei Lister 427; 15 mg/kg per os for 5 days) [%] | Inhibition of L. donovani In Vivo (%) (Mean ± SD) (L. donovani)
1 | COc1ncc(-c2ccc3nccc(-c4ccnnc4)c3c2)cc1NS(=O)(=O)c1ccc(F)cc1F [GSK2126458] | some toxicity against the host cell | found active |  |  |  |  |  |  |  |  |  |  |  |  |  | 
2 | COc1ccc(-c2ccc3ncc4c(c3c2)n(-c2ccc(N3CCNCC3)c(C(F)(F)F)c2)c(=O)n4C)cn1 [NVP-BGT226] |  |  | no sign of toxicity was observed | 9 ± 1 | 2660 ± 460 | 140 ± 20 | 19 | 80 | 20 | 1 to 2 | reduced to under the limits of detection | 54% and 54 ± 3.18% | 516 ± 36 | 0.054 ± 0.003 |  | 
3 | Nc1ccc(-c2ccc3ncc4ccc(=O)n(-c5cccc(C(F)(F)F)c5)c4c3c2)cn1 [Torin2, 9-(6-Aminopyridin-3-yl)-1-(3-(trifluoromethyl)phenyl)benzo[h][1,6]naphthyridin-2(1H)-one] |  |  |  | 30 ± 4 |  | 250 ± 30 |  |  |  |  | parasitemia was observed still by day 5 |  | 735 ± 66 | 110 ± 10 | 80 | 35% and 35 ± 5.81%
